Reference: patent publication US20190008149A1, “HERBICIDAL COMPOSITIONS CONTAINING 4-AMINO-3-CHLORO-6-(4-CHLORO-2-FLUORO-3-METHOXYPHENYL) PYRIDINE-2-CARBOXYLIC ACID OR A DERIVATIVE THEREOF AND A CELL MEMBRANE DISRUPTOR HERBICIDE OR A DERIVATIVE THEREOF” (Dow AgroSciences LLC, priority 2015, published 2019)
Values joined by “and” are separate entries in the source; they are usually repeats but may differ in a detail not shown here. Identical values can stand only once.

Test system: ERISS=Conyza species (fleabane, ERISS)
Assay: Field trial, post-emergence foliar application, percent weed control visually rated
Assay type: in vivo
Excerpt: Treatments consisted of the methyl ester of 4-amino-3-chloro-6-(4-chloro-2-fluoro-3-methoxyphenyl)pyridine-2-carboxylic acid (Cmpd 1) tankmixed with saflufenacil or paraquat. The form of compound of formula (I) was applied on an acid equivalent basis, and saflufenacil and paraquat were applied on an active ingredient basis. Saflufenacil was applied as a commercial formulation containing 700 grams per kilogram (g/kg). Paraquat was applied as a commercial formulation containing 200 g/L.
Field trials were conducted under standard field conditions. Plot sizes varied from 2 meters (m) wide by 5 m long. Treatments were applied with small plot backpack sprayers, using pressurized carbon dioxide (CO2) as propellant. Pressure varied from 40-45 pounds per square inch (PSI), with spray tips typically of a Flat Fan type applying water diluent at 100 liters per hectare (L/ha). Boom size was 2 m in width. Weed sizes varied, but all treatments were applied as post-emergence treatments to weeds from 2 leaf to 2 tiller growth stages varying from 2-15 inches in height. No additional adjuvant was mixed with the treatments applied in the field.
Results in Tables 1 to 2 are field trial results for foliar applied compositions. The values reported are percent (%) control visually rated. The predicted percent (%) weed contol was determined using Colby's equation.
ERISS=Conyza species (fleabane, ERISS) g ae/ha=grams acid equivalent per hectare g ai/ha=grams active ingredient per hectare Mean % weed control=observed value of percent (%) control rated visually Predicted mean % weed control=expected value of percent (%) control as calculated by Colby's equation Cmpd 1=methyl 4-amino-3-chloro-6-(4-chloro-2-fluoro-3-methoxyphenyl)pyridine-2-carboxylate, halauxifen-methyl, or ARYLEX® DAA=days after application

Row | SMILES | Mean % weed control (Cmpd 1 alone, 5 g ae/ha, 17DAA) [%] | Mean % weed control (Cmpd 1 alone, 5 g ae/ha, 28DAA) | Mean % weed control (Cmpd 1 alone, 5 g ae/ha, 43DAA) | Mean % weed control (Saflufenacil alone, 49 g ai/ha, 17DAA) [%] | Mean % weed control (Saflufenacil alone, 49 g ai/ha, 28DAA) [%]
1 | COC(=O)c1nc(-c2ccc(Cl)c(OC)c2F)cc(N)c1Cl [Cmpd 1, methyl 4-amino-3-chloro-6-(4-chloro-2-fluoro-3-methoxyphenyl)pyridine-2-carboxylate] | 33.75 | 33.75% and 46.25% | 40% and 57.5% |  | 
2 | CC(C)N(C)S(=O)(=O)NC(=O)c1cc(-n2c(=O)cc(C(F)(F)F)n(C)c2=O)c(F)cc1Cl [Saflufenacil, 2-chloro-5-[3,6-dihydro-3-methyl-2,6-dioxo-4-(trifluoromethyl)-1(2H)-pyrimidinyl]-4-fluoro-N-[[methyl(1-methylethyl)amino]sulfonyl]benzamide, reference compound] |  |  |  | 66.25 | 66.25
